The results in this text go back to patent US20060045953A1 (priority 2004, published 2006).

Read-outs that look alike come from different tables or passages of the source.

This experiment concerns the target T1, hT1R1/hT1R3 umami receptor (Homo sapiens, UniProt Q7RTX0+Q7RTX1).
T1 construct: expressed in transfected cells; host or cells: HEK293 derivative stably expressing Gα15, clone I-17, expression induced with mifepristone
T1 sequence (Q7RTX1 21-841): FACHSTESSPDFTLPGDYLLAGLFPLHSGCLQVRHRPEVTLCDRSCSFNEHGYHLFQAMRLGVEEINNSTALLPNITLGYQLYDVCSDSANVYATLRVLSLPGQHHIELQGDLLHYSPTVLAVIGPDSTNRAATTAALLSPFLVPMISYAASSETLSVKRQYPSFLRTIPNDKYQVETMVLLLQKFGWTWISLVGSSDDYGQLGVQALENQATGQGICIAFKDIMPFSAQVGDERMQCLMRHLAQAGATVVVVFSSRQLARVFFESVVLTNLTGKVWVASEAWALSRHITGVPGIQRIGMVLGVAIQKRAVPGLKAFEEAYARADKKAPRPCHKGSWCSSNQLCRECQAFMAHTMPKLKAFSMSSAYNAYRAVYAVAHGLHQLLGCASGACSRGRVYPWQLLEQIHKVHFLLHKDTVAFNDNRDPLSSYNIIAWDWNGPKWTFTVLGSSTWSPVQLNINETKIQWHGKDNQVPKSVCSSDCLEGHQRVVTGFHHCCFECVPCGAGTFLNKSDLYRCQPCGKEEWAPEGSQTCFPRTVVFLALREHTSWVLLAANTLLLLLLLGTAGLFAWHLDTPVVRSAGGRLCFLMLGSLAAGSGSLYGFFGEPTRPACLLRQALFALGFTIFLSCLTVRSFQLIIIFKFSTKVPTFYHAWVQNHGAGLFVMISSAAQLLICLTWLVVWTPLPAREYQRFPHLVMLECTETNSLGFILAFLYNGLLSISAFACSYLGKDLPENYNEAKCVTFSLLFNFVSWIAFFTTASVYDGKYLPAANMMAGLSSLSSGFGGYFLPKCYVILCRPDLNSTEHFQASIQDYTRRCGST
T1 sequence (Q7RTX0 21-852): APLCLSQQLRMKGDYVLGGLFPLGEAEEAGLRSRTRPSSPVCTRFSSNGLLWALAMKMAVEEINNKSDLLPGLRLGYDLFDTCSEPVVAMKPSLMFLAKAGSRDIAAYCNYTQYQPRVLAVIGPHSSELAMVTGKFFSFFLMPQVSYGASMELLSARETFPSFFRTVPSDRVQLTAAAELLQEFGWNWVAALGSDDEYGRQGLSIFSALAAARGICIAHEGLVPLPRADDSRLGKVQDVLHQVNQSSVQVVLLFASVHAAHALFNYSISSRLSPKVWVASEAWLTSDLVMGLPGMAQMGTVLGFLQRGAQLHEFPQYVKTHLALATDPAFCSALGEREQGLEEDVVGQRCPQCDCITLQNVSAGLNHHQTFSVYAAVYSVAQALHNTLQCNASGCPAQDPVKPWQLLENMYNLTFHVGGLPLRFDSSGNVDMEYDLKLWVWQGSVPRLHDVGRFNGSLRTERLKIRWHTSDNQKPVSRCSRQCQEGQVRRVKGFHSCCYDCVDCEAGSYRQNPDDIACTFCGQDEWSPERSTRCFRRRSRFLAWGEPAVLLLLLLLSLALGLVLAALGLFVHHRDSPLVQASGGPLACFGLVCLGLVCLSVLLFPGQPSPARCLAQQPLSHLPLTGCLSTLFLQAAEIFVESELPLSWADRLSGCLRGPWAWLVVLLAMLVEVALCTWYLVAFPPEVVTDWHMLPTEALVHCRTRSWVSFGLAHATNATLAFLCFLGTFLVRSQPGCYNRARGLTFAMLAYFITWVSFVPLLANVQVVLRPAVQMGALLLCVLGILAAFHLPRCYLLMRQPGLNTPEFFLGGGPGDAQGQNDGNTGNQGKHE
Description: In vitro hT1R1/hT1R3 umami taste receptor activation assay (FLIPR, dose response). Format: cell-based.

The mark [1] stands for this setting: Table A, Umami Amides, read-out: Umami EC50.
Setting [2] is: read-out: EC50 for activation of a hT1R1/hT1R3 umami receptor expressed in an HEK293 cell line.
The mark [3] stands for this setting: Table C, Umami Ureas, read-out: Umami EC50.
The mark [4] stands for this setting: Table D, Umami Acrylamides, read-out: Umami EC50.

In the case of `CCCC(CCC)NC(=O)c1ccc(Br)o1` [Example A30, 5-bromo-N-(heptan-4-yl)furan-2-carboxamide], the EC50 under setting [1] is 490 nM.
The same measure, in the same setting: then `CCCC(CC)NC(=O)c1ccc2c(c1)OCO2` (centres unmarked) [Example A53, N-(hexan-3-yl)benzo[d][1,3]dioxole-5-carboxamide], with 1830 nM; and `COC(=O)[C@@H](CC(C)C)NC(=O)c1ccc2occc2c1` [Example A9, (R)-methyl 2-(benzofuran-5-carboxamido)-4-methylpentanoate], with 710 nM.
As for `COC[C@@H](CC(C)C)NC(=O)c1ccc2c(c1)OCO2` [Example 9, (R)-N-(1-methoxy-4-methylpentan-2-yl)benzo[d][1,3]dioxole-5-benzo[d][1,3]dioxole-5-carboxylic acid], the EC50 under setting [2] stood at 3500 nM.
On to `CCCC(CC(C)C)NC(=O)c1cc2cc(OC)ccc2o1` (centres unmarked) [Example A18, 5-methoxy-N-(2-methylheptan-4-yl)benzofuran-2-carboxamide], for which the EC50 under setting [1] amounted to 1270 nM.
As for `CCCC(CCC)NC(=O)c1csc(C)n1` [Example 100, N-(heptan-4-yl)-2-methylthiazole-4-carboxamide], under setting [2], the EC50 was determined as 7200 nM.
Same read-out and setting: with `CCCC(CCC)NC(=O)c1cnc(C)c(C)n1` [Example 95, 5,6-dimethylpyrazine-2-carboxylic acid (1-propylbutyl)amide] the figure was 1010 nM; with `COc1ccc(CNC(=O)C(=O)NC(C)Cc2ccccn2)c(OC)c1` (centres unmarked) [Example 143, N-(2,4-Dimethoxybenzyl)-N′-(1-(Pyridin-2-yl)propan-2-yl)oxalamide], 400 nM; with `COC(=O)[C@H](NC(=O)c1ccc2c(c1)OCO2)C(C)C` [Example 10, (R)-methyl 2-(benzo[d][1,3]dioxole-6-carboxamido)-3-methylbutanoate], 1160 nM.
Regarding `O=C(Nc1ccccc1F)NC1CCCc2ccccc21` (centres unmarked) [Example C11, 1-(2-fluorophenyl)-3-(1,2,3,4-tetrahydronaphthalen-1-yl)urea], the EC50 under setting [3] was 1650 nM.
Take `COc1ccccc1/C=C/C(=O)NC1CCCCC1C` (centres unmarked) [Example 89, 3-(2-Methoxy-phenyl)-N-(2-methyl-cyclohexyl)-acrylamide]: under setting [2], the EC50 was determined as 3400 nM.
As for `CCCC(COC)NC(=O)c1ccc(OCC)c(C)c1` (centres unmarked) [Example 57, 4-ethoxy-N-(1-methoxypentan-2-yl)-3-methylbenzamide], the EC50 under setting [2] stood at 690 nM.
The same measure, in the same setting: then `COc1ccc(/C=C/C(=O)N[C@@H](CO)Cc2ccccc2)cc1` [Example 81, N-(1-Benzyl-2-hydroxy-ethyl)-3-(4-methoxy-phenyl)-acrylamide], with 1100 nM.
As to `Cc1ccc(C(=O)N[C@H]2CCc3ccccc32)cc1C` [Example A112, (S)-N-(2,3-dihydro-1H-inden-1-yl) 3,4-dimethylbenzamide], under setting [1], the EC50 is 790 nM.
For the compound `CCC(CC(C)C)NC(=O)c1ccc(OC)c(C)c1` (centres unmarked) [Example 53, 4-methoxy-3-methyl-N-(5-methylhexan-3-yl)benzamide], the EC50 under setting [2] was determined as 90 nM.
In the case of `CCCC(CCC)NC(=O)Nc1ccc(C)cc1OC` [Example C15, 1-(heptan-4-yl)-3-(2-methoxy-4-methylphenyl)urea], the EC50 under setting [3] came to 160 nM.
Still for that read-out and setting: with `CCCC(CCC)NC(=O)Nc1ccccc1F` [Example C4, 1-(2-fluorophenyl)-3-(heptan-4-yl)urea] the figure was 790 nM.
On to `CCCC(CC(C)C)NC(=O)c1ccc(OC)c(C)c1` (centres unmarked) [Example 52, 4-methoxy-3-methyl-N-(2-methylheptan-4-yl)benzamide], for which the EC50 under setting [2] was 100 nM.
`CCOc1ccc(NC(=O)c2cc(Cl)ccc2Cl)cc1` [Example A3, 2,5-dichloro-N-(4-ethoxyphenyl)benzamide]: the EC50 under setting [1] was 1080 nM.
For `CC(C)/C=C/C(=O)NC1CCCCC1C` (centres unmarked) [Example D12, (E)-4-methyl-N-(2-methylcyclohexyl)pent-2-enamide], the EC50 under setting [4] was 1280 nM.
Consider `COC[C@H](NC(=O)c1ccc(OC)c(C)c1)c1ccccc1` [Example A94, (R)-4-methoxy-N-(2-methoxy-1-phenylethyl)-3-methylbenzamide], for which the EC50 under setting [1] worked out at 720 nM.
On the same count and under the same terms, with `CCCC(CCC)NC(=O)c1ccc2nc(CC)oc2c1` [Example A27, 2-ethyl-N-(heptan-4-yl)benzo[d]oxazole-6-carboxamide] the figure was 1610 nM.
For the compound `O=C(NCCc1ccccn1)C(=O)NCc1cccc2c1OCCO2` [Example 137, N-((2,3-dihydrobenzo[b][1,4]dioxin-5-yl)methyl)-N′-(2-(pyridin-2-yl)ethyl) oxalamide], the EC50 under setting [2] worked out at 300 nM.
`CCCC(CCC)NC(=O)c1ccc(CC)cc1` [Example A71, 4-ethyl-N-(heptan-4-yl)benzamide]: the EC50 under setting [1] was found to be 340 nM.
Take `COCOC[C@@H](CC(C)C)NC(=O)c1ccc(C)c(C)c1` [Example 72, (R)-N-(1-(methoxymethoxy)-4-methylpentan-2-yl)-3,4-dimethylbenzamide]: the EC50 under setting [2] is 1060 nM.
In the case of `CC(CCc1ccccc1)NC(=O)/C=C/c1cccs1` (centres unmarked) [Example D4, N-(1-Methyl-3-phenyl-propyl)-3-thiophen-2-yl-acrylamide], under setting [4], the EC50 was determined as 690 nM.
With `CCCC(COC)NC(=O)c1cc2cc(OC)ccc2o1` (centres unmarked) [Example A19, 5-methoxy-N-(1-methoxypentan-2-yl)benzofuran-2-carboxamide], the EC50 under setting [1] was determined as 1300 nM.
With `COC(=O)[C@@H](CC(C)C)NC(=O)/C=C/c1ccsc1` [Example D10, (R,E)-methyl 4-methyl-2-(3-(thiophen-3-yl)acrylamido)pentanoate], the EC50 under setting [4] amounted to 1090 nM.
As for `COc1cccc(C(=O)N[C@H]2CCCc3ccccc32)c1O` [Example A93, (S)-2-hydroxy-3-methoxy-N-(1,2,3,4-tetrahydronaphthalen-1-yl)benzamide], the EC50 under setting [1] is 700 nM.
On to `COc1ccc(CNC(=O)C(=O)NCCc2ncccc2C)c(OC)c1` [Example 129, N-(2,4-Dimethoxybenzyl)-N′-(2-(3-methylpyridin-2-yl)ethyl)oxalamide], for which the EC50 under setting [2] came to 1640 nM.
Still for that read-out and setting: with `CCCC(CCC)NC(=O)c1ccc2ocnc2c1` [Example 39, benzooxazole-5-carboxylic acid (1-propylbutyl)amide] the figure was 1910 nM.
As for `CCCC(CCC)NC(=O)c1ccc(C)c(C)n1` [Example 91, N-(heptan-4-yl)-5,6-dimethylpicolinamide], the EC50 under setting [2] was 2800 nM.
With `CCCC(COC)NC(=O)c1ccc(OC)c(C)c1` (centres unmarked) [Example A97, 4-methoxy-N-(1-methoxypentan-2-yl)-3-methylbenzamide], the EC50 under setting [1] was 850 nM.
As for `CCOc1ccc(CNC(=O)C(=O)NCCc2ccc(C)cn2)c(OC)c1` [Example B2, N1-(4-ethoxy-2-methoxybenzyl)-N2-(2-(5-methylpyndm-2-yl)ethyl)oxalamide], where the note is “Table B, Umami Oxalamides, read-out: Umami EC50”, the EC50 worked out at 190 nM.
Take `O=C(NCCc1ccccn1)C(=O)NCc1ccc2c(c1)OCO2` [Example 138, N-(benzo[d][1,3]dioxol-5-ylmethyl)-N′-(2-(Pyridin-2-yl)ethyl)oxalamide]: under setting [2], the EC50 is 500 nM.
Take `CCCC(CCC)NC(=O)c1cccc(SC)c1` [Example A118, N-(heptan-4-yl)-3-(methylthio)benzamide]: the EC50 under setting [1] was 30 nM.
For `C=Cc1ccc(C(=O)NC(CCC)CCC)cc1` [Example A78, N-(heptan-4-yl)-4-vinylbenzamide], the EC50 under setting [1] was 460 nM.
Regarding `CC(C)/C=C/C(=O)NC1CCCc2ccccc21` (centres unmarked) [Example 84, 4-Methyl-pent-2-enoic acid (1,2,3,4-tetrahydro-naphthalen-1-yl)-amide], the EC50 under setting [2] was determined as 1500 nM.
